Source: patent publication US20090275570A1, “SUBSTITUTED HETEROCYCLES AND THEIR USE AS CHK1, PDK1 AND PAK INHIBITORS” (ASTRAZENECA AB, priority 2005, published 2009)
Like-named read-outs stand apart in the source and are kept apart here.

Key:
Type in all cases: biochemical
Pak1 = molecular target: T1, Pak1 (Homo sapiens, UniProt Q13153); experiment: In Vitro Pak1 Enzyme Assay (SPA); details: read-out: IC50 value in the Pak 1 enzyme assay
T1 construct: The full-length Pak1 protein is expressed in E. coli as a GST fusion; GST; made in house; host or cells: E. coli
Method: (§1) The assay used Scintillation Proximity Assay (SPA) technology (Antonsson et al., Analytical Biochemistry, 1999, 267: 294-299) to determine the ability of test compounds to inhibit phosphorylation by recombinant Pak1. The full-length Pak1 protein is expressed in E. coli as a GST fusion and purified using the GST tag using standard purification techniques.
(§2) Test compounds were prepared as 10 mM stock solutions in DMSO and diluted into water as required to give a range of final assay concentrations. Aliquots (5 μl) of each compound dilution were placed into a well of a Matrix 384-well flat bottom white polystyrene plate (Catalogue No. 4316). […]
(§3) Each reaction was stopped and the biotinylated peptide captured by the addition of 30 Ξl of a mixture of Streptavidin coated PVT SPA bead slurry (Amersham Biosciences, Catalogue No. RPQO205; 250 μg/well) in 50 mM Tris-HCl pH7.5 buffer containing 0.05% sodium azide followed by the addition of 30 μl of 2.83M Caesium chloride (final assay concentration of 1M). Plates are then left for 2 hours on the bench before being counted on a TopCount. […]
Pak1 enzyme inhibition for a given test compound was expressed as an IC50 value.

Pak4 = molecular target: T2, Pak4 (Homo sapiens, UniProt O96013); experiment: In Vitro Pak4 Enzyme Assay (SPA); details: read-out: IC50 value in the Pak 4 enzyme assay
T2 construct: The kinase domain of Pak4 (amino acids 291 to 591) is expressed in E. coli as a GST fusion; GST; made in house; host or cells: E. coli
Method: as §1, with “Pak4.” for “Pak1.”, “kinase domain of Pak4 (amino acids 291 to 591)” for “full-length Pak1 protein”
as §2
as §3, with “μl” for “Ξl”, “RPQ0205;” for “RPQO205;”
Pak4 enzyme inhibition for a given test compound was expressed as an IC50 value. […]

PDK1 = molecular target: T3, PDK1 (Homo sapiens, UniProt O15530); experiment: PDK1 Enzyme Assay (Alphascreen)
T3 construct: 6His; made in house; host or cells: insect cells
T3 sequence (O15530 1-556): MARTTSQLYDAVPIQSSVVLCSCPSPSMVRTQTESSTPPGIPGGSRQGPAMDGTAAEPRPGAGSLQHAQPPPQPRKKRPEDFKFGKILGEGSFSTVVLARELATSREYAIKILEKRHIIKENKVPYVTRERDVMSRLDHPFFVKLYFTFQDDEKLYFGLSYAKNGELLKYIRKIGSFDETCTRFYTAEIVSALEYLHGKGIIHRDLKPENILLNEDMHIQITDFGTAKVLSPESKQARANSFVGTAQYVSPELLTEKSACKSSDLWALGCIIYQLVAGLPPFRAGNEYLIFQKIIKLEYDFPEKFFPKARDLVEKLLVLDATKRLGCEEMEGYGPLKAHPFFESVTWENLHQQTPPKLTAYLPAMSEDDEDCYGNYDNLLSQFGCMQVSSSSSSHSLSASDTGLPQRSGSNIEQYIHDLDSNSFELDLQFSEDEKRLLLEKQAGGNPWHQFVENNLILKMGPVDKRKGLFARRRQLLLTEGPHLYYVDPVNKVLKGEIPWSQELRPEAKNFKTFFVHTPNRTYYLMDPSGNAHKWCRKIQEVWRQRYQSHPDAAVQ
Method: The assay utilised Alphascreen technology (Ullman, E F, et al. Proc. Natl. Acad. Sci. USA, Vol. 91, pp. 5426-5430, 1994) to measure the ability of compounds to inhibit PDK1 enzyme activity. 6H is tagged PDK1 enzyme was expressed in insect cells and purified using NiNTA beads and conventional protein purification methodology.
Test compounds were prepared as 10 mM stock solutions in DMSO and diluted into water as required to give a range of final assay concentrations. 2 μl aliquots of compounds were dispensed into Greiner Bio-One low volume 384 well plates (Catalogue no. 784075). For the activity assay, to each well was added 5 μl of a mixture of 48 nM native peptide (Biotin-Ahx-[…]NH2, Bachem UK Ltd) and 12 μM adenosine triphosphate (ATP) in reaction buffer comprising Tris-HCl pH7.4 (60 mM), magnesium acetate (12 mM), EGTA (120 μM), DTT (1.2 mM) and bovine serum albumin (0.12 mg/ml). […]
Each reaction was stopped by addition of 5 μl of a solution containing Tris-HCl pH7.4 (50 mM), bovine serum albumin (1 mg/ml), EDTA (90 mM), anti-phospho Akt T308 antibody, R&D Systems, Catalogue no. […] Plates were then sealed and incubated overnight in low light conditions before being read on an Envision plate reader (Perkin Elmer). […]

CHK1 kinase = molecular target: T4, CHK1 kinase (Homo sapiens, UniProt O14757); experiment: Checkpoint Kinase 1 Assay (SPA)
T4 construct: The kinase domain is expressed in baculovirus and purified by the GST tag; GST; made in house; host or cells: baculovirus system (insect cells implied)
T4 sequence (O14757 9-265 limits assumed): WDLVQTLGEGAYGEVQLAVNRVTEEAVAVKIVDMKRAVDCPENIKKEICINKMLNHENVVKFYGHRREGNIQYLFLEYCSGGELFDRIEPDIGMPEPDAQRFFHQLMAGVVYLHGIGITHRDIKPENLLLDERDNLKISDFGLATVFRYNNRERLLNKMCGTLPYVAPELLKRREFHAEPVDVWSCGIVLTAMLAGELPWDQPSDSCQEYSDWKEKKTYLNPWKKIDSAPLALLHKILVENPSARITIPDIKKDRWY
Method: Checkpoint Kinase 1 Assay: This in vitro assay measures the inhibition of CHK1 kinase by compounds. The kinase domain is expressed in baculovirus and purified by the GST tag. Purified protein and biotinylated peptide substrate (Cdc25C) is then used in a 384 well automated Scintillation Proximity Assay (SPA). Specifically, peptide, enzyme and reaction buffer are mixed and aliquoted into a 384 well plate containing dilution series of compounds and controls. Cold and hot ATP are then added to initiate the reaction. After 2 hours, a SPA bead slurry, […] and EDTA are added to stop the reaction and capture the biotinylated peptide. Plates are then counted on a Topcount. Data is analyzed and IC50s determined for individual compounds.

T1 sequence (Q13153 whole entry, the tested form may be a part): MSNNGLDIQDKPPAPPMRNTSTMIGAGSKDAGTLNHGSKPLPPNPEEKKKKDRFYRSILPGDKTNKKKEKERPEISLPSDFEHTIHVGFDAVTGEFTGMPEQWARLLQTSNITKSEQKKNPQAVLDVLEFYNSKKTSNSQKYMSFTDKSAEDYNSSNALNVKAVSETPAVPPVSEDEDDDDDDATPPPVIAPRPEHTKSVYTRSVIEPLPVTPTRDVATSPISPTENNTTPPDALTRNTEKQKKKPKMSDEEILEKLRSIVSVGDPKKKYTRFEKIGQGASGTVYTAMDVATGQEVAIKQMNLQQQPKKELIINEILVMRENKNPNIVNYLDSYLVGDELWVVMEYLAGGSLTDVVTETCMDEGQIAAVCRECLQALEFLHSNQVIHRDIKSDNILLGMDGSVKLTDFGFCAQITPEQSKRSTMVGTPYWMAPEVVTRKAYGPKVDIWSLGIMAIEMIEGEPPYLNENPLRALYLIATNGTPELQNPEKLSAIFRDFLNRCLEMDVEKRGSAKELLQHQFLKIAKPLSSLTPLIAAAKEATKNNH
T2 sequence (O96013 291-591): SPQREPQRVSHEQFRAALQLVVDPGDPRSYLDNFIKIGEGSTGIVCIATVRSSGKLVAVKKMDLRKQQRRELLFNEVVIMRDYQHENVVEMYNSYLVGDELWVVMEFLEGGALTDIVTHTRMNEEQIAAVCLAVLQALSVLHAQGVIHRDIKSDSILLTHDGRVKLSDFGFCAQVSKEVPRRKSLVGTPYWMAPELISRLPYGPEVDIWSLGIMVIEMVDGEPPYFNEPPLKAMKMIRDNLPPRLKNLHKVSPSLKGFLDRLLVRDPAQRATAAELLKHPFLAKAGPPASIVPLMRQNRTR

Row | IC50 (Pak1) [nM] | IC50 (Pak4) [nM] | IC50 (PDK1) [nM] | IC50 (CHK1 kinase; read-out: IC50 value in the Checkpoint Kinase 1 assay) [nM] | Compound | IC50 (CHK1 kinase) [nM]
1 | 730 | 140 | 350 | – | NC(=O)c1cnc(N[C@H]2CCCNC2)c2cc(-c3cc(F)cc(F)c3)sc12 [Example 10, 2-(3,5-difluorophenyl)-4-[(3S)-piperidin-3-ylamino]thieno[3,2-c]pyridine-7-carboxamide] | –
2 | 600 | 100 | 160 | – | NC(=O)c1cnc(N[C@H]2CCCNC2)c2cc(-c3ccc(Cl)cc3)sc12 [Example 14, 2-(4-chlorophenyl)-4-[(3S)-piperidin-3-ylamino]thieno[3,2-c]pyridine-7-carboxamide] | –
3 | – | – | – | 550 | NCCNc1ncc(C(N)=O)c2sc(-c3ccccc3)cc12 [Example 16, 4-[(2-aminoethyl)amino]-2-phenylthieno[3,2-c]pyridine-7-carboxamide] | –
4 | – | – | – | – | Cc1cc2c(N[C@H]3CCCNC3)ncc(C(N)=O)c2s1 [Example 157, 2-methyl-4-[(3S)-piperidin-3-ylamino]thieno[3,2-c]pyridine-7-carboxamide] | 150
